Consider seven compounds from patent US20240246977A1, “DEGRADATION OF BRUTON'S TYROSINE KINASE (BTK) BY CONJUGATION OF BTK INHIBITORS WITH E3 LIGASE LIGAND AND METHOD OF USE” (BeiGene Switzerland GmbH, priority 2021, published 2024).

Structures are written as SMILES.

The test system of one assay is HEK-293 cells. Nature of the assay: HEK-293 cytotoxicity detection (CellTiter-Glo). The assay is classed as cell-based. The conditions noted are these: Homo sapiens, 72 h, 72 h incubation, CellTiter-Glo luminescence, read-out: HEK293. An outline of the steps:
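HEK-293 cells exposed 72 h to 8 compounds doses (4-fold dilutions, top stock 5 mM at 500×) in 0.2% DMSO. Viability by CellTiter-Glo luminescence; inhibition normalised to DMSO high control and low control, IC50 from four-parameter curve fit.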
(Cellular ATP, detected with luciferase, serves as a proxy for viable cell number.)

In the next assay the target is BTK (Homo sapiens, UniProt Q06187). Nature of the assay: BTK cell degradation in TMD-8 cells, HTRF assay. Details: endogenous in cells; host or cells: TMD-8 cells. The class given is cell-based. The conditions noted are these: 6 h treatment, IC50 (DC50) of BTK degradation. In outline: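 BTK levels read by HTRF in lysates of TMD-8 cells exposed to compounds for 6 h, eight concentrations at 6-fold steps in 0.2% DMSO. Percent degradation versus DMSO and low controls was fitted with a four-parameter equation to give DC50; Dmax is maximal degradation.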
Sequence of BTK (Q06187 whole entry): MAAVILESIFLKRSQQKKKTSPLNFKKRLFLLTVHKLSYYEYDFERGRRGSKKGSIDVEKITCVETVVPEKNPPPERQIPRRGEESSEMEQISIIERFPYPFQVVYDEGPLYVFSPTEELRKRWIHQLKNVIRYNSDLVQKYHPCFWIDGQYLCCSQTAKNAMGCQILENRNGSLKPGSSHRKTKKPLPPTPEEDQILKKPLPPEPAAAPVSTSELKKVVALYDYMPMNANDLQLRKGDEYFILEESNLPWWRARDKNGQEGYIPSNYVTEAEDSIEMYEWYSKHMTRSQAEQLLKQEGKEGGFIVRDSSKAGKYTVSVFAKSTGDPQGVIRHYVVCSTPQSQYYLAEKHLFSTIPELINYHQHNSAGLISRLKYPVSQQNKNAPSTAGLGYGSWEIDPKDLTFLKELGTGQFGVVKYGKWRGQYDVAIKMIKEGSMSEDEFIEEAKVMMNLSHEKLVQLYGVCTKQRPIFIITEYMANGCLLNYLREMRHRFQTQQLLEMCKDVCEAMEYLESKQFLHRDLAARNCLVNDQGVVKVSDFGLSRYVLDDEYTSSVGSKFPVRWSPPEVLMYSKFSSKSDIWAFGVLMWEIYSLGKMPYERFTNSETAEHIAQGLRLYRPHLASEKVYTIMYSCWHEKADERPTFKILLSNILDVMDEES
A general note: Time-resolved FRET reads energy transfer from a long-lived donor to a nearby acceptor.

In the case of `Cc1cccc(NC(=O)c2ccc(-c3nn4c(c3C(N)=O)Nc3ccc(N5CCN(CC6CN(c7ccc(N8CCC(=O)NC8=O)cc7)C6)CC5)cc3CC4)c(F)c2C)n1` [Example B59, 7-(4-((1-(4-(2,4-dioxotetrahydropyrimidin-1(2H)-yl)phenyl)azetidin-3-yl)methyl)piperazin-1-yl)-2-(2-fluoro-3-methyl-4-((6-methylpyridin-2-yl)carbamoyl)phenyl)-9,10-dihydro-4H-benzo[d]pyrazolo[1,5-a][1,3]diazepine-3-carboxamide], the IC50 with HEK-293 cells was > 10000 nM. Besides, it took 1.47 nM to reach half-maximal degradation at BTK (DC50).

Turning to `NC(=O)c1c(-c2ccc(Oc3ccccc3)cc2)nn2c1Nc1ccc(C(=O)N[C@H]3CC[C@H](CN4CCN(c5cc6c(cc5F)C(=O)N(C5CCC(=O)NC5=O)C6=O)CC4)CC3)cc1CC2` (some centres unmarked) [Example A12, N^7-((1r,4r)-4-((4-(2-(2,6-dioxopiperidin-3-yl)-6-fluoro-1,3-dioxoisoindolin-5-yl)piperazin-1-yl)methyl)cyclohexyl)-2-(4-phenoxyphenyl)-9,10-dihydro-4H-benzo[d]pyrazolo[1,5-a][1,3]diazepine-3,7-dicarboxamide], the IC50 with HEK-293 cells was found to be 396 nM. Besides, it took 4.58 nM to reach half-maximal degradation on BTK (DC50).

`NC(=O)c1c(-c2ccc(C(=O)Nc3cc(C(F)(F)F)ccn3)cc2F)nn2c1Nc1ccc(N3CCN(CC4CCN(c5ccc(N6CCC(=O)NC6=O)cc5)CC4)CC3)cc1CC2` [Example B2, 7-(4-((1-(4-(2,4-dioxotetrahydropyrimidin-1(2H)-yl)phenyl)piperidin-4-yl)methyl)piperazin-1-yl)-2-(2-fluoro-4-((4-(trifluoromethyl)pyridin-2-yl)carbamoyl)phenyl)-9,10-dihydro-4H-benzo[d]pyrazolo[1,5-a][1,3]diazepine-3-carboxamide]: the IC50 with HEK-293 cells was > 10000 nM. Further, the DC50 (as a rule, the concentration giving 50% degradation) at BTK is 0.842 nM.

In the case of `COc1ccc2ccccc2c1C(=O)N[C@H](C)c1ccc(-c2nn3c(c2C(N)=O)Nc2ccc(N4CCN(CC5CCN(c6ccc(N7CCC(=O)NC7=O)cc6)CC5)CC4)cc2CC3)cc1` [Example C13, (R)-7-(4-((1-(4-(2,4-dioxotetrahydropyrimidin-1(2H)-yl)phenyl)piperidin-4-yl)methyl)piperazin-1-yl)-2-(4-(1-(2-methoxy-1-naphthamido)ethyl)phenyl)-9,10-dihydro-4H-benzo[d]pyrazolo[1,5-a][1,3]diazepine-3-carboxamide], in the assay on HEK-293 cells, the IC50 was > 10000 nM. The compound further showed a DC50 on BTK of 11.6 nM.

In the case of `COc1cc(F)ccc1C(=O)NCc1ccc(-c2nn3c(c2C(N)=O)Nc2ccc(N4CCN(CC5CCN(c6ccc(N7CCC(=O)NC7=O)cc6)CC5)CC4)cc2CC3)cc1C` [Example C41, 7-(4-((1-(4-(2,4-dioxotetrahydropyrimidin-1(2H)-yl)phenyl)piperidin-4-yl)methyl)piperazin-1-yl)-2-(4-((4-fluoro-2-methoxybenzamido)methyl)-3-methylphenyl)-9,10-dihydro-4H-benzo[d]pyrazolo[1,5-a][1,3]diazepine-3-carboxamide], the IC50 in the assay on HEK-293 cells is > 10000 nM. The DC50 on BTK came out at 9.74 nM.

Turning to `NC(=O)c1c(-c2ccc(Oc3ccccc3)cc2)nn2c1Nc1cc(NC(=O)C3CCN(CC4CCN(c5ccc6c(c5)C(=O)N(C5CCC(=O)NC5=O)C6=O)CC4)CC3)ccc1CC2` (centres unmarked) [Example A18, 6-(1-((1-(2-(2,6-dioxopiperidin-3-yl)-1,3-dioxoisoindolin-5-yl)piperidin-4-yl)methyl)piperidine-4-carboxamido)-2-(4-phenoxyphenyl)-9,10-dihydro-4H-benzo[d]pyrazolo[1,5-a][1,3]diazepine-3-carboxamide], the IC50 with HEK-293 cells is 2510 nM. Moreover, the DC50 at BTK worked out at 9.62 nM.

On to `CCc1cccc(NC(=O)c2ccc(-c3nn4c(c3C(N)=O)Nc3ccc(N5CCN(CC6CCN(c7ccc(N8CCC(=O)NC8=O)cc7)CC6)CC5)cc3CC4)c(F)c2C)n1` [Example B41, 7-(4-((1-(4-(2,4-dioxotetrahydropyrimidin-1(2H)-yl)phenyl)piperidin-4-yl)methyl)piperazin-1-yl)-2-(4-((6-ethylpyridin-2-yl)carbamoyl)-2-fluoro-3-methylphenyl)-9,10-dihydro-4H-benzo[d]pyrazolo[1,5-a][1,3]diazepine-3-carboxamide], for which the IC50 with HEK-293 cells is > 10000 nM. This compound also showed a DC50 on BTK of 9.26 nM.
